Data from US12240834B2, “Polymorphs of [2-(1H-indol-3-yl)-1H-imidazol-4-yl] (3,4,5-trimethoxyphenyl)methanone and its salts” (VERU INC., priority 2022, dated 2025).

Experiments:
[1] = Hygroscopicity by dynamic vapor sorption (DVS); assay type: physicochemical; settings: for DVS behaviour: moisture adsorption-desorption
Protocol: Hygroscopicity—Dynamic Vapor Sorption (DVS)
DVS is a gravimetric technique that measures how quickly and how much of a solvent (water) is absorbed by a sample. The relative humidity or vapor concentration surrounding the sample is varied while the change in mass of the sample is measured. […] The mass values at each relative humidity step are used to generate an isotherm. Isotherms are divided in two components: sorption for increasing humidity steps and desorption for decreasing humidity steps. A plot of kinetic data is also used to show the change in mass and humidity as a function of time.
The samples were analyzed using a TA Q5000 automated dynamic vapor sorption analyzer. The samples were dried at higher temperature than ambient over a period of time and then cooled to 25° C. with a dry nitrogen purge over them until they no longer lost mass at 0% RH (relative humidity). The samples were then subjected to 0 to 90% RH, back to 10% RH at 25° C. in 10% RH steps.

[2] = Polymorph screen summary of forms (stability designation); assay type: physicochemical
From the text: Polymorphism is the ability of a chemical entity to exist in different three-dimensional arrangements in the solid state. Different polymorphic forms of a compound can have different physical properties. […] The screen was designed to prepare as many novel crystalline forms as possible and characterize these polymorphs for use in a pharmaceutical product. […] Samples generated during the study were characterized using differential scanning calorimetry (DSC), polarized light microscopy, thermogravimetric analysis (TGA), X-ray powder diffraction (XRD), Fourier transform infrared spectroscopy (FT-IR), and dynamic vapor sorption (DVS). […] These were essentially the same except for minor changes in the diffraction pattern and DSC thermograms. […] The HCl salt was characterized polymorphic as multiple polymorphic forms were made and characterized as described below. […] Based on diffraction behavior, each polymorphic form was studied to determine differentiation. The characterization of each hydrochloride polymorph form began with an X-ray powder diffraction (XRD) data comparison of each form with the other forms. This was generally followed by DSC and TGA analysis.

[3] = Non-competitive slurry experiments (solid form stability, XRD readout); assay type: physicochemical; settings: ambient temperature
Protocol: In addition to the solvent recrystallization experiments (Example 3), non-competitive slurry (Example 4) and competitive slurry (Example 5) experiments were performed to make new solid-state forms. Non-competitive slurry experiments were performed to search for new solid-state forms. These experiments relied on solubility differences of different polymorphic forms (if the compound is polymorphic).
The solution is saturated with respect to the polymorphic form dissolved. […] In addition, noncompetitive slurry experiments are often useful in identifying solvents that form solvates with the compound.
The slurry experiments were performed by exposing excess starting material, which was in all cases in this experiment Form B, to neat single and binary solvent systems and agitating the resulting suspensions for several days at ambient temperature. The solids were vacuum filtered and analyzed by XRD to determine the resulting form. To avoid possible desolvation or physical change after isolation, the samples were not further dried before X-ray analysis.

[4] = Storage of solid forms at ambient conditions (form conversion)

SMILES: COc1cc(C(=O)c2c[nH]c(-c3c[nH]c4ccccc34)n2)cc(OC)c1OC.Cl [Form A]
- total weight gain (DVS) ([1]; at 90% RH): about 0.4%
- DVS behaviour [1]: very hydrophobic and does not appear to be prone to hydrate formation
- Description (stability / hydrate designation of the form) [2]: Metastable

SMILES: COc1cc(C(=O)c2c[nH]c(-c3c[nH]c4ccccc34)n2)cc(OC)c1OC.Cl [Form B]
- Final Form ([3]; 1-Propanol/EtOAc slurry, 11 Days): Form E1
- Final Form ([3]; 2-Propanol/THF slurry, 11 Days): Form E1
- Final Form ([3]; ACN/Acetone slurry, 11 Days): Form E1
- Final Form ([3]; Acetone slurry, 14 Days): Form D
- Final Form ([3]; Acetonitrile slurry, 14 Days): Form D
- Final Form ([3]; Ethanol slurry, 14 Days): Solvate
- Final Form ([3]; Ethanol/Toluene slurry, 11 Days): Form E1
- Final Form ([3]; Ethanol/acetonitrile slurry, 11 Days): Form E1
- Final Form ([3]; Ethyl acetate slurry, 14 Days): Form B
- Final Form ([3]; Heptane slurry, 14 Days): Form B
- Final Form ([3]; MeOH/Acetone slurry, 11 Days): Low crystallinity
- Final Form ([3]; Methanol slurry, 14 Days): Solvate
- Final Form ([3]; Methanol/DCM slurry, 11 Days): Solvate
- Final Form ([3]; Methanol/Water slurry, 11 Days): Low crystallinity
- Final Form ([3]; Methylene chloride slurry, 14 Days): Form B
- Final Form ([3]; TFE/DCM slurry, 11 Days): Form B
- Final Form ([3]; TFE/EtOAc slurry, 11 Days): Low order
- Final Form ([3]; THF slurry, 14 Days): Form B
- Final Form ([3]; Toluene slurry, 14 Days): Form B
- Final Form ([3]; Water slurry, 14 Days): Low Crystallinity
- Description (stability / hydrate designation of the form) [2]: Metastable

SMILES: COc1cc(C(=O)c2c[nH]c(-c3c[nH]c4ccccc34)n2)cc(OC)c1OC.Cl [Form CH]
- water uptake (DVS) ([1]; at high humidity, returned to starting mass upon completion of the scan): up to 0.95 wt %
- DVS behaviour [1]: very low uptake of water adsorption
- Description (stability / hydrate designation of the form) [2]: Monohydrate

SMILES: COc1cc(C(=O)c2c[nH]c(-c3c[nH]c4ccccc34)n2)cc(OC)c1OC.Cl [Form D]
- Description (stability / hydrate designation of the form) [2]: Metastable

SMILES: COc1cc(C(=O)c2c[nH]c(-c3c[nH]c4ccccc34)n2)cc(OC)c1OC.Cl [Form FH]
- Description (stability / hydrate designation of the form) [2]: Hydrate

SMILES: COc1cc(C(=O)c2c[nH]c(-c3c[nH]c4ccccc34)n2)cc(OC)c1OC.Cl [Form GH]
- Description (stability / hydrate designation of the form) [2]: Hydrate

SMILES: COc1cc(C(=O)c2c[nH]c(-c3c[nH]c4ccccc34)n2)cc(OC)c1OC.Cl [Form H]
- Description (stability / hydrate designation of the form) [2]: Stable Form
- form conversion on holding at ambient conditions ([4]; held at ambient conditions): not observed to convert to any other polymorphic form

SMILES: COc1cc(C(=O)c2c[nH]c(-c3c[nH]c4ccccc34)n2)cc(OC)c1OC.Cl [Form I]
- Description (stability / hydrate designation of the form) [2]: Metastable
- form conversion on storage ([4]; after a month of storage at ambient conditions): converted to a mixture of Form CH and Form H

SMILES: COc1cc(C(=O)c2c[nH]c(-c3c[nH]c4ccccc34)n2)cc(OC)c1OC [free base (Form I)]
- form resulting from slurry (XRD) ([3]; slurried in acetone, THF or toluene, several days): Form II
